# Several values for one entry are separate records, joined by “and”; a condition that tells them apart may be missing. Equal values may be shown once.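 48-hour exposure; five concentrations; linearly interpolated endpoints. Abbreviation: GI50, concentration required for 50% inhibition of growth. TGI is the concentration that stops growth completely.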
# Key:
# Test in all cases: inhibition of tumour cell growth, NCI panel, 48 h
# [1] = test system: PC-3 prostate
# [2] = test system: RPMI-8226 leukemia
# [3] = test system: HCT-116 colon
# [4] = test system: UACC-62 melanoma
# [5] = test system: MDA-MB-231 breast
# [6] = test system: MDA-N
# [7] = test system: LOX IMVI melanoma
# [8] = test system: HL-60(TB) leukemia
# [9] = test system: NCI-H23 lung
# [10] = test system: UACC-257 melanoma
# [11] = test system: MALME-3M melanoma
# [12] = test system: HT29 colon
# [13] = test system: CAKI-1 renal
# [14] = test system: SF-539 CNS
# [15] = test system: K-562 leukemia
# [16] = test system: OVCAR-4 ovarian
# [17] = test system: SK-MEL-28 melanoma
# [18] = test system: NCI-H522 lung
# [19] = test system: KM12 colon
# [20] = test system: SR leukemia
# [21] = test system: ACHN renal
# [22] = test system: MCF7 breast
# [23] = test system: 786-0 renal
# [24] = test system: IGROV1 ovarian
# [25] = test system: DU-145 prostate
# [26] = test system: HOP-62 NSCLC
# [27] = test system: T-47D breast
# [28] = test system: BT-549 breast
# [29] = test system: UO-31 renal
# [30] = test system: U251 CNS
# [31] = test system: RXF 393 renal
# [32] = test system: A549 NSCLC
# [33] = test system: COLO 205 colon
# [34] = test system: EKVX NSCLC
# [35] = test system: SK-MEL-5 melanoma
# [36] = test system: CCRF-CEM leukemia
# [37] = test system: A498 renal
# [38] = test system: HCC-2998 colon
# [39] = test system: TK-10 renal
# [40] = test system: MDA-MB-435
# [41] = test system: OVCAR-3 ovarian
# [42] = test system: OVCAR-5 ovarian
# [43] = test system: SF-268 CNS
# [44] = test system: SNB-75 CNS
# [45] = test system: SK-MEL-2 melanoma
# [46] = test system: HOP-92 NSCLC
# [47] = test system: M14 melanoma
# [48] = test system: SNB-19 CNS
# [49] = test system: HCT-15 colon
# [50] = test system: NCI-H226 lung
# [51] = test system: MOLT-4 leukemia
# [52] = test system: OVCAR-8 ovarian
# [53] = test system: SW-620 colon
# [54] = test system: NCI-H460 lung
# [55] = test system: SN12C renal
# [56] = test system: NCI/ADR-RES ovarian
# [57] = test system: SK-OV-3 ovarian
# [58] = test system: SF-295 CNS
smiles,measurement,setting,value
CCNC(=O)CCC(C)[C@H]1CCC2C3C(C[C@H](OC(C)=O)[C@@]21C)[C@@]1(C)CCC2(C[C@H]1C[C@H]3OC(C)=O)OOC1(CCC(C)CC1)OO2 (some centres not stated),GI50,[1],0.716 µM and 2.06 µM
same,TGI,[1],> 100 µM and 11.4 µM
same,GI50,[2],0.574 µM and 1.39 µM
same,TGI,[2],2.64 µM and 3.81 µM
same,TGI,[3],6.01 µM and 4.28 µM
same,TGI,[4],10.8 µM and 6.15 µM
same,TGI,[5],6.13 µM
same,TGI,[6],10.3 µM and 3.92 µM
same,TGI,[7],6.29 µM and 4.61 µM
same,TGI,[8],3.74 µM and 4.85 µM
same,TGI,[9],9.01 µM and 5.24 µM
same,TGI,[10],> 100 µM and 96.3 µM
same,TGI,[11],6.1 µM and 3.92 µM
same,GI50,[12],1.19 µM and 3.04 µM
same,TGI,[13],3.93 µM and 2.24 µM
same,TGI,[14],7.44 µM and 3.7 µM
same,TGI,[15],> 100 µM
same,TGI,[16],4.09 µM and 3.17 µM
same,TGI,[17],> 100 µM and 17.4 µM
same,TGI,[18],3.7 µM and 3.07 µM
same,TGI,[19],4.3 µM and 3.25 µM
same,TGI,[20],3.32 µM
same,TGI,[21],4.65 µM and 3.13 µM
same,TGI,[22],> 100 µM
same,TGI,[23],7.66 µM and 3.44 µM
same,TGI,[24],3.66 µM and 2.87 µM
same,TGI,[25],3.22 µM and 6.19 µM
same,TGI,[26],3.56 µM and 2.09 µM
same,TGI,[27],5.18 µM and 3.84 µM
same,TGI,[28],5.94 µM and 3.2 µM
same,TGI,[29],2.38 µM and 2.71 µM
same,TGI,[30],7.32 µM and 3.23 µM
same,GI50,[31],9.58 µM and 3.18 µM
same,TGI,[31],> 100 µM and 16.5 µM
same,TGI,[32],8.28 µM and 4.02 µM
same,TGI,[33],3.18 µM and 3.2 µM
same,TGI,[34],2.69 µM
same,TGI,[35],4.43 µM and 3.09 µM
same,TGI,[36],3.2 µM and 3.94 µM
same,GI50,[37],> 100 µM and 25.6 µM
same,TGI,[37],> 100 µM
same,TGI,[38],7.3 µM and 3.87 µM
same,TGI,[39],6.74 µM and 5.13 µM
same,TGI,[40],5.22 µM and 3.44 µM
same,TGI,[41],3.62 µM
same,TGI,[42],> 100 µM
same,GI50,[43],4.22 µM and 1.59 µM
same,TGI,[44],5.89 µM and 5.67 µM
same,TGI,[45],3.91 µM and 3.21 µM
same,TGI,[46],7.31 µM and 3.38 µM
same,TGI,[47],43 µM and 5.24 µM
same,TGI,[48],> 100 µM and 24.4 µM
same,TGI,[49],20.4 µM and 4.62 µM
same,TGI,[50],9.4 µM and 3.85 µM
same,GI50,[51],0.658 µM and 1.72 µM
same,TGI,[51],2.66 µM and 5.47 µM
Cc1ccc(C(=O)Nc2ccc(S(=O)(=O)O)c3cc(S(=O)(=O)O)cc(S(=O)(=O)O)c23)cc1NC(=O)Nc1cc(C(=O)Nc2ccc(S(=O)(=O)O)c3cc(S(=O)(=O)O)cc(S(=O)(=O)O)c23)ccc1C,TGI,[1],> 87.5 µM
same,TGI,[2],> 87.5 µM
same,TGI,[3],> 87.5 µM
same,TGI,[4],> 87.5 µM
same,TGI,[5],> 87.5 µM
same,TGI,[52],> 87.5 µM
same,TGI,[6],> 87.5 µM
same,TGI,[7],> 87.5 µM
same,TGI,[8],> 87.5 µM
same,TGI,[9],> 87.5 µM
same,TGI,[10],> 87.5 µM
same,TGI,[11],> 87.5 µM
same,TGI,[12],> 87.5 µM
same,TGI,[13],> 87.5 µM
same,TGI,[15],> 87.5 µM
same,TGI,[16],> 87.5 µM
same,TGI,[17],> 87.5 µM
same,TGI,[18],> 87.5 µM
same,TGI,[20],> 87.5 µM
same,TGI,[21],> 87.5 µM
same,TGI,[22],> 87.5 µM
same,TGI,[23],> 87.5 µM
same,TGI,[24],> 87.5 µM
same,TGI,[25],> 87.5 µM
same,TGI,[26],> 87.5 µM
same,TGI,[27],> 87.5 µM
same,TGI,[28],> 87.5 µM
same,TGI,[29],> 87.5 µM
same,TGI,[30],> 87.5 µM
same,TGI,[32],> 87.5 µM
same,TGI,[53],> 87.5 µM
same,TGI,[35],> 87.5 µM
same,TGI,[36],> 87.5 µM
same,TGI,[37],> 87.5 µM
same,TGI,[38],> 87.5 µM
same,TGI,[39],> 87.5 µM
same,TGI,[40],> 87.5 µM
same,TGI,[41],> 87.5 µM
same,TGI,[42],> 87.5 µM
same,TGI,[43],> 87.5 µM
same,TGI,[44],> 87.5 µM
same,TGI,[45],> 87.5 µM
same,TGI,[47],> 87.5 µM
same,TGI,[48],> 87.5 µM
same,TGI,[54],> 87.5 µM
same,TGI,[49],> 87.5 µM
same,TGI,[50],> 87.5 µM
same,TGI,[51],> 87.5 µM
same,TGI,[55],> 87.5 µM
CCOC(=O)[C@@H]1C2C(=C[C@H]3[C@H]1C(=O)N1CCCC[C@H]31)CCCN2C(=O)OCc1ccccc1 (some centres not stated),TGI,[1],77.6 µM
same,TGI,[2],46.4 µM
same,TGI,[3],> 100 µM
same,TGI,[4],39.2 µM
same,TGI,[5],> 100 µM
same,TGI,[52],> 100 µM
same,TGI,[6],> 100 µM
same,TGI,[7],> 100 µM
same,TGI,[8],45 µM
same,TGI,[56],81.2 µM
same,TGI,[9],93.9 µM
same,TGI,[10],> 100 µM
same,TGI,[11],> 100 µM
same,TGI,[12],> 100 µM
same,TGI,[13],> 100 µM
same,TGI,[14],> 100 µM
same,TGI,[15],> 100 µM
same,TGI,[16],> 100 µM
same,TGI,[57],> 100 µM
same,TGI,[17],> 100 µM
same,TGI,[18],45.2 µM
same,TGI,[19],> 100 µM
same,TGI,[21],> 100 µM
same,TGI,[22],> 100 µM
same,TGI,[23],> 100 µM
same,TGI,[24],> 100 µM
same,TGI,[25],> 100 µM
same,TGI,[26],> 100 µM
same,TGI,[27],> 100 µM
same,TGI,[28],62.5 µM
same,TGI,[29],> 100 µM
same,TGI,[30],> 100 µM
same,TGI,[31],> 100 µM
same,TGI,[32],> 100 µM
same,TGI,[33],51.3 µM
same,TGI,[34],> 100 µM
same,TGI,[53],> 100 µM
same,TGI,[35],> 100 µM
same,TGI,[36],> 100 µM
same,TGI,[37],96 µM
same,TGI,[38],53.1 µM
same,TGI,[39],> 100 µM
same,TGI,[40],> 100 µM
same,TGI,[41],> 100 µM
same,TGI,[42],> 100 µM
same,TGI,[43],60.3 µM
same,TGI,[44],> 100 µM
same,TGI,[45],56.8 µM
same,TGI,[46],> 100 µM
same,TGI,[47],> 100 µM
same,TGI,[48],> 100 µM
same,TGI,[58],> 100 µM
same,TGI,[54],82.6 µM
same,TGI,[49],> 100 µM
same,TGI,[50],> 100 µM
same,TGI,[51],38.2 µM
same,TGI,[55],> 100 µM

# Source: PubChem BioAssay (NCI)
